Source: patent publication US20090029982A1, “PROTEIN KINASE INHIBITORS” (SUPERGEN, INC., priority 2005, published 2009)

Tests used:
[1] = system: HT-29 human colon cancer cells; assay: HT-29 xenograft study in mice; format: in vivo; conditions: 25 mg/kg intraperitoneally, q.d.×5 for two weeks
Method: In order to evaluate the effectiveness of MP277 against tumor cells in a living system, a xenograft study was performed in mice. 1×10^7 HT-29 human colon cancer cells were injected subcutaneously into 16 Nu/Nu athymic nude mice (Charles River Laboratories, Wilmington, Mass.). Tumor volume was measured according to the formula ((Width)^2*Length)/2. Tumors were allowed to grow to approximately 100 mm^3 in volume (Day 0), at which point mice were randomized to two groups: Eight mice were treated with 25 mg/kg MP277, while the other eight were given an equal volume of drug vehicle. For this study, the drug vehicle used was 60% propylene glycol, 30% polyethylene glycol 300, 10% ethanol with 150 mg/mL 2-hydroxypropyl-beta-cyclodextrin. Each mouse received 0.1 mL of drug or vehicle intraperitoneally on a q.d.×5 schedule for two weeks, with two days rest between cycles.

[2] = target: T1, recombinant aurora-2 kinase (Homo sapiens, UniProt O14965); assay: aurora-2 kinase inhibition assay (Kinase-Glo, ATP remaining); format: biochemical; conditions: Example 20, Table 2; 3 μM ATP, 62.5 μM Kemptide, 30° C., two hours; read-out: IC50 A2K
T1 construct: purchased Upstate, Lake Placid, N.Y; host or cells: sf9 cells
T1 sequence (O14965 1-403): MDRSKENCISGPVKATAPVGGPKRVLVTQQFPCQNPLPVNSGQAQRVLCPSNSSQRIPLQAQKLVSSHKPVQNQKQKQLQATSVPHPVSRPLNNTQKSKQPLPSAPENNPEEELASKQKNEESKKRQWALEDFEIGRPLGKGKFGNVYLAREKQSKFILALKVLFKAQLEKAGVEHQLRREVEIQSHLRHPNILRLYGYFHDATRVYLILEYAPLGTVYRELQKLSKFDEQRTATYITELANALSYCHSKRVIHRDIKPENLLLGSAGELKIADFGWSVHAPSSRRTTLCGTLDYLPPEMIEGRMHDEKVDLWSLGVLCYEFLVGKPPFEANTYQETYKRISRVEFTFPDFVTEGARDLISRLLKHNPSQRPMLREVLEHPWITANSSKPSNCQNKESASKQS
Method: In this assay kinase activity was determined by quantifying the amount of ATP remaining in solution following a kinase reaction by measuring the light units (LU) produced by luciferase using a luminometer. Percent inhibition was determined for individual compounds by comparing luminometer readings of drug-treated reactions to controls containing no drug (DMSO control) and no Aurora-2 enzyme (ATP control) in the following equation: […]
In a 50 μl reaction, recombinant aurora-2 kinase produced in sf9 cells (Upstate, Lake Placid, N.Y.) was incubated at 30° C. for two hours with 62.5 μM Kemptide (Calbiochem, San Diego, Calif.), 3 μM ATP (Invitrogen, Carlsbad, Calif.) and kinase reaction buffer (40 mM Tris-HCl, 10 mM MgCl2 and 0.1 μg/μl bovine serum albumin (BSA)). This reaction was carried out in the presence of drug substances, which had been previously diluted to desired concentrations in DMSO. […] Kinase activity is determined by quantifying the amount of ATP remaining in solution following the kinase reaction by measuring the light units (LU) produced by luciferase using a luminometer (Thermo-Electron, Vantaa, Finland).
Briefly, kinase activity was determined by quantifying the amount of ATP remaining in solution following a kinase reaction by measuring the light units (LU) produced by luciferase using a luminometer. […]

| IC50 [2] [nM] | SMILES | toxicity noted through the duration of the study ([1]; nude mice) | inhibition of tumor growth in vivo ([1]; subcutaneous HT-29 xenograft, FIG. 1) |
| --- | --- | --- | --- |
|  | CC(=O)NS(=O)(=O)c1ccc(NC(=S)N2CCN(c3ncnc4[nH]c5cc(C(F)(F)F)c(Cl)cc5c34)CC2)cc1 [Compound 1, 4-(6-Chloro-7-trifluoromethyl-9H-pyrimido[4,5-b]indol-4-yl)-piperazine-1-carbothioic acid (4-acetylsulfamoyl-phenyl)-amide] | No noticeable toxicity | effective for inhibiting tumor growth in vivo |
| 5 | COc1cc2[nH]c3ncnc(N4CCN(C(=S)Nc5ccc(S(=O)(=O)NC(C)=O)cc5)CC4)c3c2cc1OC [Compound 2] |  |  |
